Measurements taken from patent US20250145637A1, “SULFONAMIDE DERIVATIVE, PREPARATION METHOD THEREFOR AND MEDICAL USE THEREOF” (Jiangsu Hengrui Pharmaceuticals Co. Ltd., priority 2021, published 2025).

What was measured:
[1] = Pharmacokinetic evaluation in SD rats; assay type: in vivo; conditions: both sexes, rat, plasma, po, i.g., 2.0 mg/kg; for Vd/F: read-out: Apparent distribution volume Vz/F; for AUC(0-t): read-out: Area under curve AUC0-t; for CL/F: read-out: Clearance rate CL/F; for half-life: read-out: Half-life T½ (converted); for Cmax: read-out: Plasma concentration Cmax
Protocol: Test Example 5: Pharmacokinetic Evaluation
(§1) SD rats were used as test animals. After intragastric (i.g.) administration of the compounds of the present disclosure to SD rats, the plasma concentrations at different time points were measured by the LC/MS/MS method. The pharmacokinetic behavior of the compounds of the present disclosure in SD rats was studied, and their pharmacokinetic profiles were evaluated.
Compound 2, compound 7, compound 21, and compound 23.
16 SD rats, of which half were male and half female, were evenly divided into 4 groups. The rats were provided by Vital River Laboratory Animal Technology Co., Ltd. The rats were fasted overnight and intragastrically administered the compounds.
(§2) 2.3. Compound Solution Preparation
A certain amount of test compound was weighed out and dissolved in 5% DMSO+5% tween 80+90% normal saline to prepare a 0.2 mg/mL colorless clear solution.
The dose administered was 2.0 mg/kg, and the volume was 10.0 mL/kg.
(§3) 0.1 mL blood samples were collected from the orbit before the administration and 0.25 h, 0.5 h, 1.0 h, 2.0 h, 4.0 h, 6.0 h, 8.0 h, 11.0 h and 24.0 h post-dose. The blood samples were placed into EDTA-K2 anticoagulation tubes and centrifuged at 10,000 rpm for 1 min (4° C.), and plasma was separated within 1 h and stored at −20° C. before analysis. The process from the blood collection to the centrifugation was performed in an ice bath. Access to food was given 2 h post-dose.
Measurement of plasma concentrations in SD rats after compounds were administered in different concentrations: 25 μL samples of the SD rat plasma collected at various time points post-dose were taken, and to each of the samples was added 25 μL of camptothecin (an internal standard for compound 2, 100 ng/mL) or 50 μL of tolbutamide (an internal standard for compound 7, 100 ng/mL) or 50 μL of verapamil (an internal standard for compounds 21 and 23, 100 ng/mL). Protein was precipitated with 200 μL of acetonitrile, and after 5 min of vortexing, the mixtures were centrifuged at 3700 rpm for 10 min. 120 µL of supernatant was taken and vortexed with 30 μL of water for 5 min, and a 5 μL sample was taken for LC/MS/MS analysis.

[2] = Pharmacokinetic evaluation in C57 mice; assay type: in vivo; conditions: for Vd / AUC(0-t) / half-life / Cmax / bioavailability / CL/F: both sexes, mouse, plasma; for Vd: read-out: Apparent distribution volume Vss; for AUC(0-t): read-out: Area under curve AUC0-t; for half-life: read-out: Half-life T½ (converted); for Cmax: read-out: Plasma concentration Cmax; for bioavailability: oral, i.g. 2.0 mg/kg vs i.v. 1.0 mg/kg, read-out: Bioavailability F (%); for CL/F: read-out: Clearance rate CL/F; for Clearance rate CL/F: i.v.
Protocol: as §1, with “C57 mice” for “SD rats”, “(i.g.)/intravenous (i.v.)” for “(i.g.)”, “C57 mice,” for “SD rats,”, “studied” for “studied,”
Compound 2 and compound 3.
36 C57 mice, of which half were male and half female, were evenly divided into 4 groups of 9, 3 mice per time point per group. The mice were provided by Vital River Laboratory Animal Technology Co., Ltd. The mice were intragastrically and intravenously administered the compounds.
as §2
A certain amount of test compound was weighed out and dissolved in 5% DMSO+5% tween 80+90% normal saline to prepare a 0.1 mg/mL colorless clear solution (for the intragastric administration groups) and a 0.1 mg/mL colorless clear solution (for the intravenous administration groups).
Intragastric administration groups: The dose was 2.0 mg/kg, and the volume was 0.2 mL/10 g.
Intravenous administration groups: The dose was 1.0 mg/kg, and the volume was 0.1 mL/10 g.
as §3, with “Intragastric administration groups: 0.1” for “0.1”, “collected” for “collected from the orbit”, “−80°” for “−20°”, “bath.” for “bath. Access to food was given 2 h post-dose.”
Intravenous administration groups: Blood samples were collected before administration and 5 min, 0.25 h, 0.5 h, 1.0 h, 2.0 h, 4.0 h, 8.0 h, 11.0 h and 24 h post-dose and were treated in the same way as those collected from the intragastric administration groups.
Measurement of plasma concentrations in C57 mice after compounds were administered in different concentrations: 25 μL samples of the C57 mouse plasma collected at various time points post-dose were taken, and to each of the samples was added 50 μL of diclofenac (an internal standard for compound 2, 100 ng/mL) or 25 μL of tolbutamide (an internal standard for compound 3, […], purchased from LGC Ltd., UK). Protein was precipitated with 200 μL of acetonitrile, and after 5 min of vortexing, the mixtures were centrifuged at 3700 rpm for 10 min. 120 μL of supernatant was taken and vortexed with 30 μL of water for 5 min, and a 5 μL sample was taken for LC/MS/MS analysis. 4. Pharmacokinetic parameters

SMILES | Vd/F [1] [L/kg] | AUC(0-t) [1] [µg·h/mL] | CL/F [1] [mL/min/kg] | half-life [1] [h] | Cmax [1] [ng/mL] | Vd ([2]; iv, 1.0 mg/kg) [L/kg] | AUC(0-t) ([2]; iv, 1.0 mg/kg) [µg·h/mL] | half-life ([2]; iv, 1.0 mg/kg) [h] | Cmax ([2]; iv, 1.0 mg/kg) [ng/mL] | bioavailability [2] [%] | AUC(0-t) ([2]; po, i.g., 2.0 mg/kg) [µg·h/mL] | CL/F ([2]; po, i.g., 2.0 mg/kg) [mL/min/kg] | half-life ([2]; po, i.g., 2.0 mg/kg) [h] | Cmax ([2]; po, i.g., 2.0 mg/kg) [ng/mL] | Clearance rate CL/F ([2]; 1.0 mg/kg) [mL/min/kg]
COc1cccc(OC)c1S(=O)(=O)Nc1noc2cc(Cn3cccn3)c3c(c12)OCCC3 [Compound 2, N-(5-((1H-pyrazol-1-yl)methyl)-3,4-dihydro-2H-chromeno[8,7-d]isoxazol-9-yl)-2,6-dimethoxybenzenesulfonamide] | 0.202 | 43.3 | 0.8 | 2.96 | 8210 | 0.093 | 188 | 18.4 | 17600 | 108 | 405 | 0.033 | 29.7 | 40100 | 0.0504
COc1ccccc1S(=O)(=O)Nc1noc2cc(Cn3cccn3)c3c(c12)OCCC3 [Compound 3, N-(5-((1H-pyrazol-1-yl)methyl)-3,4-dihydro-2H-chromeno[8,7-d]isoxazol-9-yl)-2-methoxybenzenesulfonamide] | – | – | – | – | – | 0.102 | 209 | 49 | 22100 | 94.1 | 393 | 0.0225 | 58.3 | 33000 | 0.0251
CCOc1cc(C)ccc1S(=O)(=O)Nc1noc2cc(Cn3cccn3)c3c(c12)OCCC3 [Compound 7, N-(5-((1H-pyrazol-1-yl)methyl)-3,4-dihydro-2H-chromeno[8,7-d]isoxazol-9-yl)-2-ethoxy-4-methylbenzenesulfonamide] | 0.25 | 81.3 | 0.614 | 6.71 | 9200 | – | – | – | – | – | – | – | – | – | –
COc1cccc(OC(F)(F)F)c1S(=O)(=O)Nc1noc2cc(Cn3cccn3)c3c(c12)OCC3 [Compound 23, N-(4-((1H-pyrazol-1-yl)methyl)-2,3-dihydrobenzofuro[7,6-d]isoxazol-8-yl)-2-methoxy-6-(trifluoromethoxy)benzenesulfonamide] | 0.47 | 61.2 | 0.431 | 13.7 | 6240 | – | – | – | – | – | – | – | – | – | –
